Laboratory results reported in patent publication US4175081A, “5-Substituted thiadiazole ureas” (priority 1977, dated 1979).

How the values were obtained:
Turnip (TP) [1] = assay: Pre-emergence herbicide test; assay type: in vivo, Brassica sp.; details: Brassica rapa, pre-emergence, 336 h, two weeks after treatment
Summary of the method: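 In this pre-emergence greenhouse test, turnip was seeded on the surface of potting soil in 3' plastic pots, lightly covered with screened soil, and watered from below. One day later the pots were sprayed in a belt-fed spray hood. Watering continued only by sub-irrigation, and percent control was visually scored two weeks after treatment.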

Amaranth pigweed (PW) [2] = assay: Pre-emergence herbicide test; assay type: in vivo, Amaranthus retroflexus; details: 336 h, two weeks after treatment
Summary of the method: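 Visual injury or control ratings were made at two weeks on pre-emergence pots, sub-irrigated in the greenhouse. Seeds were sown a day before a hood spray delivering 8 lbs/acre (or 4 lbs/acre) of compound in 38 gallons per acre.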

Johnson grass (JG) [3] = assay: Post-emergence herbicide test; assay type: in vivo, Sorgum helepense; details: Sorghum halepense, 336 h, two weeks after treatment
Summary of the method: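 Visual injury or control scores taken 2 weeks after a post-emergence spray of pot-grown plants. Application was 8 lbs/acre (or 4 lbs/acre) in 38 gal/acre. Plants were held in the greenhouse with sub-irrigation only.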

Amaranth pigweed (PW) [4] = assay: Post-emergence herbicide test; assay type: in vivo, Amaranthus retroflexus; details: 336 h, two weeks after treatment
Summary of the method: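 Visual injury or control ratings were made two weeks after spraying, with greenhouse watering by sub-irrigation only. Treatment was post-emergence, when pigweed seedlings had 1 or 2 true leaves, at 8 lbs active compound per acre (4 lbs/acre formulations also made) in a 38 gallons-per-acre spray volume.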

Crabgrass (CG) [5] = assay: Pre-emergence herbicide test; assay type: in vivo, Digitaria sanquinalis; details: Digitaria sanguinalis, pre-emergence, 336 h, two weeks after treatment
Summary of the method: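 Crabgrass (Digitaria sanquinalis) was surface seeded in 3' plastic pots of potting soil, covered with screened soil, and watered by sub-irrigation in greenhouse trays. Pots were seeded one day before spraying in a hood with a moving belt and fixed nozzle. Plants stayed in the greenhouse on sub-irrigation, and pre-emergence control was rated visually two weeks after treatment.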

Corn (CN) [6] = assay: Post-emergence herbicide test; assay type: in vivo; details: Zea mays, 336 h, two weeks after treatment
Summary of the method: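 Greenhouse seedlings grown in potting soil and sprayed post-emergence at 8 lbs compound/acre (formulations also made for 4 lbs/acre) in 38 gallons/acre spray volume. Watering by sub-irrigation only. Injury or control rated visually two weeks after treatment.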

Barnyard grass (BG) [7] = assay: Pre-emergence herbicide test; assay type: in vivo; details: Echinochloa crus-galli, 336 h, two weeks after treatment
Summary of the method: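 Greenhouse pre-emergence spray test: pots seeded one day before treatment received compound at rates of 8 or 4 lb/acre (38 gal/acre). Visual injury/control scores for Echinochloa crus-galli taken at two weeks, with watering by sub-irrigation only.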

Cotton (CT) [8] = assay: Post-emergence herbicide test; assay type: in vivo, Gossypium hirsutum var. DPL smooth leaf; details: Gossypium hirsutum, post-emergence, 336 h, two weeks after treatment
Summary of the method: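 This greenhouse post-emergence test measured how well spray treatments controlled cotton. Seedlings of Gossypium hirsutum var. DPL smooth leaf, with expanded cotyledons and a first true leaf 1' in length, were sprayed with 50 ml formulations in a belt-fed spray hood. They were then returned to the greenhouse and watered only by sub-irrigation. Injury was scored visually as % control after two weeks.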

Turnip (TP) [9] = assay: Post-emergence herbicide test; assay type: in vivo, Brassica sp.; details: Brassica rapa, post-emergence, 336 h, two weeks after treatment
Summary of the method: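 A greenhouse post-emergence herbicide test on turnip. Seeds were sown on the surface of potting soil in 3' plastic pots, lightly covered with screened soil and watered from below. Planting was timed so seedlings had 1 or 2 true leaves above the cotyledons at spraying, done in a hood with a fixed nozzle. Control or injury was scored by eye after two weeks.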

Cotton (CT) [10] = assay: Pre-emergence herbicide test; assay type: in vivo, Gossypium hirsutum var. DPL smooth leaf; details: Gossypium hirsutum, 336 h, two weeks after treatment
Summary of the method: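 Visual injury/control ratings were taken at two weeks post-spray. Pots seeded a day earlier received compound pre-emergence at 8 lbs/acre, or 4 lbs/acre, in a 38 gallon/acre spray volume, and were then held in the greenhouse, watered only from below.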

Bean (BN) [11] = assay: Post-emergence herbicide test; assay type: in vivo, Phaseolus vulgaris var. Black Valentine; details: Phaseolus vulgaris, post-emergence, 336 h, two weeks after treatment
Summary of the method: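 Bean seedlings (Phaseolus vulgaris var. Black Valentine) were grown in potting soil in 3' pots until the primary leaves expanded. They were then sprayed under a hood with a removable belt and fixed nozzle, using 50 ml formulations. Afterward they were returned to the greenhouse and watered only by sub-irrigation. Percent control was judged visually two weeks after treatment.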

Barnyard grass (BG) [12] = assay: Post-emergence herbicide test; assay type: in vivo; details: Echinochloa crus-galli, 336 h, two weeks after treatment
Summary of the method: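 Greenhouse pot-grown barnyard grass seedlings sprayed post-emergence at 8 lbs active compound per acre (some at 4 lbs/acre) in 38 gallons per acre, then sub-irrigated. Injury or control rated visually two weeks after treatment.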

Johnson grass (JG) [13] = assay: Pre-emergence herbicide test; assay type: in vivo, Sorgum helepense; details: Sorghum halepense, 336 h, two weeks after treatment
Summary of the method: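 Visual injury or control rating two weeks post-treatment, after pre-emergence spray of 8 or 4 lbs active per acre (38 gal/acre) onto pots sown the previous day. Greenhouse watering by sub-irrigation only.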

Corn (CN) [14] = assay: Pre-emergence herbicide test; assay type: in vivo; details: Zea mays, 336 h, two weeks after treatment
Summary of the method: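 Visual injury/control ratings were made 2 weeks post-spray on corn pots seeded (4 seeds, seed-diameter depth) the day before treatment. Application was a belt-hood spray of 38 gal/acre delivering 8 lbs active per acre, with a 4 lbs/acre rate also formulated. Watering was by sub-irrigation throughout.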

Crabgrass (CG) [15] = assay: Post-emergence herbicide test; assay type: in vivo, Digitaria sanquinalis; details: Digitaria sanguinalis, post-emergence, 336 h, two weeks after treatment
Summary of the method: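 Crabgrass (Digitaria sanquinalis) was surface seeded individually in 3' plastic pots of potting soil, covered with screened soil, and watered by sub-irrigation in greenhouse trays. Planting was staggered so seedlings reached the target stage together. Post-emergence sprays were applied in a hood with a removable belt and fixed nozzle, and control was visually rated two weeks after treatment.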

Bean (BN) [16] = assay: Pre-emergence herbicide test; assay type: in vivo, Phaseolus vulgaris var. Black Valentine; details: Phaseolus vulgaris, 336 h, two weeks after treatment
Summary of the method: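 Visual injury/control ratings were taken two weeks post-spray on sub-irrigated Phaseolus vulgaris var. Black Valentine. Pots were sown a day before treatment. Pre-emergence spray delivered 8 lbs actual compound per acre (or 4 lbs/acre) at 38 gallons per acre.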

## CCCSc1nnc(N(C)C(=O)NC)s1 [Example 69]
Turnip (TP) [1]; 2 lb/acre
  pest or weed control at 2241.7 g/ha: 90%
Turnip (TP) [1]; 4 lb/acre
  pest or weed control at 4483.4 g/ha: 50%
Turnip (TP) [1]; 8 lb/acre
  pest or weed control at 8966.8 g/ha: 100%
Amaranth pigweed (PW) [2]; 4 lb/acre
  pest or weed control at 4483.4 g/ha: 100%
Amaranth pigweed (PW) [2]; 8 lb/acre
  pest or weed control at 8966.8 g/ha: 100%
Johnson grass (JG) [3]; 2 lb/acre
  pest or weed control: 70%
Johnson grass (JG) [3]; 4 lb/acre
  pest or weed control at 4483.4 g/ha: 80%
Johnson grass (JG) [3]; 8 lb/acre
  pest or weed control at 8966.8 g/ha: 100%
Amaranth pigweed (PW) [4]; 4 lb/acre
  pest or weed control at 4483.4 g/ha: 100%
Amaranth pigweed (PW) [4]; 8 lb/acre
  pest or weed control at 8966.8 g/ha: 100%
Crabgrass (CG) [5]; 2 lb/acre
  pest or weed control: 90%
Crabgrass (CG) [5]; 4 lb/acre
  pest or weed control at 4483.4 g/ha: 90%
Crabgrass (CG) [5]; 8 lb/acre
  pest or weed control at 8966.8 g/ha: 100%
Corn (CN) [6]; 2 lb/acre
  pest or weed control: 80%
Corn (CN) [6]; 4 lb/acre
  pest or weed control at 4483.4 g/ha: 50%
Corn (CN) [6]; 8 lb/acre
  pest or weed control at 8966.8 g/ha: 100%
Barnyard grass (BG) [7]; 2 lb/acre
  pest or weed control at 2241.7 g/ha: 40%
Barnyard grass (BG) [7]; 4 lb/acre
  pest or weed control at 4483.4 g/ha: 60%
Cotton (CT) [8]; 2 lb/acre
  pest or weed control at 2241.7 g/ha: 100%
Cotton (CT) [8]; 4 lb/acre
  pest or weed control at 4483.4 g/ha: 100%
Cotton (CT) [8]; 8 lb/acre
  pest or weed control at 8966.8 g/ha: 100%
Turnip (TP) [9]; 2 lb/acre
  pest or weed control at 2241.7 g/ha: 100%
Turnip (TP) [9]; 4 lb/acre
  pest or weed control at 4483.4 g/ha: 100%
Turnip (TP) [9]; 8 lb/acre
  pest or weed control at 8966.8 g/ha: 100%
Cotton (CT) [10]; 2 lb/acre
  pest or weed control at 2241.7 g/ha: 50%
Cotton (CT) [10]; 4 lb/acre
  pest or weed control at 4483.4 g/ha: 30%
Cotton (CT) [10]; 8 lb/acre
  pest or weed control at 8966.8 g/ha: 90%
Bean (BN) [11]; 2 lb/acre
  pest or weed control at 2241.7 g/ha: 100%
Bean (BN) [11]; 4 lb/acre
  pest or weed control at 4483.4 g/ha: 100%
Bean (BN) [11]; 8 lb/acre
  pest or weed control at 8966.8 g/ha: 100%
Barnyard grass (BG) [12]; 2 lb/acre
  pest or weed control at 2241.7 g/ha: 90%
Barnyard grass (BG) [12]; 4 lb/acre
  pest or weed control at 4483.4 g/ha: 80%
Johnson grass (JG) [13]; 2 lb/acre
  pest or weed control at 2241.7 g/ha: 20%
Johnson grass (JG) [13]; 4 lb/acre
  pest or weed control at 4483.4 g/ha: 40%
Johnson grass (JG) [13]; 8 lb/acre
  pest or weed control at 8966.8 g/ha: 70%
Corn (CN) [14]; 2 lb/acre
  pest or weed control at 2241.7 g/ha: 30%
Corn (CN) [14]; 4 lb/acre
  pest or weed control at 4483.4 g/ha: 0%
Corn (CN) [14]; 8 lb/acre
  pest or weed control at 8966.8 g/ha: 50%
Crabgrass (CG) [15]; 2 lb/acre
  pest or weed control: 100%
Crabgrass (CG) [15]; 4 lb/acre
  pest or weed control at 4483.4 g/ha: 90%
Crabgrass (CG) [15]; 8 lb/acre
  pest or weed control at 8966.8 g/ha: 100%
Bean (BN) [16]; 2 lb/acre
  pest or weed control at 2241.7 g/ha: 0%
Bean (BN) [16]; 4 lb/acre
  pest or weed control at 4483.4 g/ha: 0%
Bean (BN) [16]; 8 lb/acre
  pest or weed control at 8966.8 g/ha: 100%
